Key:
Mcl-1 = Mcl-1 (Homo sapiens (Human), UniProt Q07820); experiment: TR-FRET binding assay, FITC-Bak peptide and MBP-tagged Mcl-1; settings: read-out: Ki for Inhibition of Mcl-1 by TR-FRET assay
Procedure: Compounds are diluted in DMSO in a 16-point, semilog serial dilution scheme. […] The plate was mixed and incubated for 3 hours at room temperature. […] TR-FRET signal is plotted and IC50 and Ki values are calculated in the same manner as the fluorescence polarization anisotropy based competition assays.

[1] = tested on: H929 human cancer cell lines; experiment: Cellular viability / proliferation (Cell TiterGlo, 72 h); type: cell-based; settings: Homo sapiens, NCI-H929, 72 h, read-out: GI50 on cellular proliferation of H929 human cancer cell lines, H929 cells, 72 h, Cell TiterGlo, 10% FBS
Procedure, shortened: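 Top dose 50 μM, serially diluted 2-fold, applied one day after seeding (1,000 cells/well, 10% FBS), DMSO below 1%.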

Chain of Mcl-1 (Q07820 172-327): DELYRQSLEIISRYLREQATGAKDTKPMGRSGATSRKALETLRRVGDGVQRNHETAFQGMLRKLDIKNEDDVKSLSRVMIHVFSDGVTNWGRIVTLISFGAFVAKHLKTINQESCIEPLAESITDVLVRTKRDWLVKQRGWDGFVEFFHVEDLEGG

Structure (SMILES): CC(=O)N1CCN(c2ccnc(Cn3c(C(=O)O)cc4cc(C)cc(N5C[C@@H](C)n6c(c(CCCOc7cc(C)c(Cl)c(C)c7)c7ccc(Cl)c(-c8c(C)nn(C)c8C)c76)C5=O)c43)c2)CC1 [Example 552, (R)-1-((4-(4-acetylpiperazin-1-yl)pyridin-2-yl)methyl)-7-(7-chloro-10-(3-(4-chloro-3,5-dimethylphenoxy)propyl)-4-methyl-1-oxo-6-(1,3,5-trimethyl-1H-pyrazol-4-yl)-3,4-dihydropyrazino[1,2-a]indol-2(1H)-yl)-5-methyl-1H-indole-2-carboxylic acid]
- Ki (Mcl-1): < 0.2 nM
- GI50 [1]: 4600 nM

Structure (SMILES): COc1ccnc(Cn2c(C(=O)O)cc3c(OC)ccc(N4C[C@@H](C)n5c(c(CCCOc6cc(C)c(Cl)c(C)c6)c6ccc(Cl)c(-c7c(C)ncnc7C)c65)C4=O)c32)c1 [Example 476, (R)-7-(7-Chloro-10-(3-(4-chloro-3,5-dimethylphenoxy)propyl)-6-(4,6-dimethylpyrimidin-5-yl)-4-methyl-1-oxo-3,4-dihydropyrazino[1,2-a]indol-2(1H)-yl)-4-methoxy-1-((4-methoxypyridin-2-yl)methyl)-1H-indole-2-carboxylic acid]
- Ki (Mcl-1): < 0.2 nM
- GI50 [1]: < 200 nM

Structure (SMILES): Cc1cc(OCCCc2c3n(c4c(-c5c(C)nn(C)c5C)c(Cl)ccc24)[C@H](C)CN(c2cn(C)c4ccc(-c5nc6cccc(C)n6n5)cc24)C3=O)cc(C)c1Cl [Example 696, (R)-7-Chloro-10-(3-(4-chloro-3,5-dimethylphenoxy)propyl)-4-methyl-2-(1-methyl-5-(5-methyl-[1,2,4]triazolo[1,5-a]pyridin-2-yl)-1H-indol-3-yl)-6-(1,3,5-trimethyl-1H-pyrazol-4-yl)-3,4-dihydropyrazino[1,2-a]indol-1(2H)-one]
- Ki (Mcl-1): 1.1 nM
- GI50 [1]: 1400 nM

Structure (SMILES): Cc1cc(OCCCc2c3n(c4c(-c5c(C)nn(C)c5C)c(Cl)ccc24)[C@H](C)CN(c2cn(CC4CCN(C)C4)c4ccc(C(=O)O)cc24)C3=O)cc(C)c1Cl (stereo partly drawn) [Example 534, 3-((R)-7-Chloro-10-(3-(4-chloro-3,5-dimethylphenoxy)propyl)-4-methyl-1-oxo-6-(1,3,5-trimethyl-1H-pyrazol-4-yl)-3,4-dihydropyrazino[1,2-a]indol-2(1H)-yl)-1-((1-methylpyrrolidin-3-yl)methyl)-1H-indole-5-carboxylic acid]
- Ki (Mcl-1): < 0.2 nM
- GI50 [1]: 520 nM

Structure (SMILES): COCCOCCOc1cc(N2C[C@@H](C)n3c(c(CCCOc4cc(C)c(Cl)c(C)c4)c4ccc(Cl)c(-c5c(C)ncnc5C)c43)C2=O)c2c(c1)cc(C(=O)O)n2C [Example 631, (R)-7-(7-chloro-10-(3-(4-chloro-3,5-dimethylphenoxy)propyl)-6-(4,6-dimethylpyrimidin-5-yl)-4-methyl-1-oxo-3,4-dihydropyrazino[1,2-a]indol-2(1H)-yl)-5-(2-(2-methoxyethoxy)ethoxy)-1-methyl-1H-indole-2-carboxylic acid]
- Ki (Mcl-1): < 0.2 nM
- GI50 [1]: 300 nM

Structure (SMILES): Cc1nnn(-c2ccc3c(n2)c(N2C[C@@H](C)n4c(c(CCCOc5cc(C)c(Cl)c(C)c5)c5ccc(Cl)c(-c6c(C)nn(C)c6C)c54)C2=O)cn3C)n1 [Example 684, (R)-7-Chloro-10-(3-(4-chloro-3,5-dimethylphenoxy)propyl)-4-methyl-2-(1-methyl-5-(5-methyl-2H-tetrazol-2-yl)-1H-pyrrolo[3,2-b]pyridin-3-yl)-6-(1,3,5-trimethyl-1H-pyrazol-4-yl)-3,4-dihydropyrazino[1,2-a]indol-1(2H)-one]
- Ki (Mcl-1): 0.6 nM
- GI50 [1]: 520 nM

Structure (SMILES): COc1ccc(N2C[C@@H](C)n3c(c(CCCOc4cc(C)c(Cl)c(C)c4)c4ccc(Cl)c(-c5c(C)n[nH]c5C)c43)C2=O)c2c1cc(C(=O)O)n2C [Example 727, (R)-7-(7-chloro-10-(3-(4-chloro-3,5-dimethylphenoxy)propyl)-6-(3,5-dimethyl-1H-pyrazol-4-yl)-4-methyl-1-oxo-3,4-dihydropyrazino[1,2-a]indol-2(1H)-yl)-4-methoxy-1-methyl-1H-indole-2-carboxylic acid]
- Ki (Mcl-1): < 0.2 nM
- GI50 [1]: 500 nM

Structure (SMILES): C=Cc1ccnc(Cn2c(C(=O)O)cc3cc(C)cc(N4C[C@@H](C)n5c(c(CCCOc6cc(C)c(Cl)c(C)c6)c6ccc(Cl)c(-c7c(C)nn(C)c7C)c65)C4=O)c32)c1 [Example 514, (R)-7-(7-chloro-10-(3-(4-chloro-3,5-dimethylphenoxy)propyl)-4-methyl-1-oxo-6-(1,3,5-trimethyl-1H-pyrazol-4-yl)-3,4-dihydropyrazino[1,2-a]indol-2(1H)-yl)-5-methyl-1-((4-vinylpyridin-2-yl)methyl)-1H-indole-2-carboxylic acid]
- Ki (Mcl-1): < 0.2 nM
- GI50 [1]: < 200 nM

Structure (SMILES): COCCOc1cc(N2C[C@@H](C)n3c(c(CCCOc4cc(C)c(Cl)c(C)c4)c4ccc(Cl)c(-c5c(C)nn(C)c5C)c43)C2=O)c2c(c1)cc(C(=O)O)n2Cc1cccc(C)n1 [Example 540, (R)-7-(7-Chloro-10-(3-(4-chloro-3,5-dimethylphenoxy)propyl)-4-methyl-1-oxo-6-(1,3,5-trimethyl-1H-pyrazol-4-yl)-3,4-dihydropyrazino[1,2-a]indol-2(1H)-yl)-5-(2-methoxyethoxy)-1-((6-methylpyridin-2-yl)methyl)-1H-indole-2-carboxylic acid]
- Ki (Mcl-1): < 0.2 nM
- GI50 [1]: < 200 nM

Structure (SMILES): COCCOc1cc(N2C[C@@H](C)n3c(c(CCCOc4cc(C)c(Cl)c(C)c4)c4ccc(Cl)c(-c5c(C)ncnc5C)c43)C2=O)c2c(c1)cc(C(=O)O)n2C [Example 539, (R)-7-(7-Chloro-10-(3-(4-chloro-3,5-dimethylphenoxy)propyl)-6-(4,6-dimethylpyrimidin-5-yl)-4-methyl-1-oxo-3,4-dihydropyrazino[1,2-a]indol-2(1H)-yl)-5-(2-methoxyethoxy)-1-methyl-1H-indole-2-carboxylic acid]
- Ki (Mcl-1): < 0.2 nM
- GI50 [1]: < 200 nM

Structure (SMILES): COCCn1cc(N2C[C@@H](C)n3c(c(CCCOc4cc(C)c(Cl)c(C)c4)c4ccc(Cl)c(-c5c(C)nc(CN6CCN(C)CC6)nc5C)c43)C2=O)c2cc(C(=O)O)ccc21 [Example 559, (R)-3-(7-chloro-10-(3-(4-chloro-3,5-dimethylphenoxy)propyl)-6-(4,6-dimethyl-2-((4-methylpiperazin-1-yl)methyl)pyrimidin-5-yl)-4-methyl-1-oxo-3,4-dihydropyrazino[1,2-a]indol-2(1H)-yl)-1-(2-methoxyethyl)-1H-indole-5-carboxylic acid]
- Ki (Mcl-1): < 0.2 nM
- GI50 [1]: 430 nM

Structure (SMILES): Cc1cc(OCCCc2c3n(c4c(-c5c(C)nn(C)c5C)c(Cl)ccc24)[C@H](C)CN(c2cn(Cc4cscn4)c4ccc(C(=O)O)cc24)C3=O)cc(C)c1Cl [Example 532, (R)-3-(7-Chloro-10-(3-(4-chloro-3,5-dimethylphenoxy)propyl)-4-methyl-1-oxo-6-(1,3,5-trimethyl-1H-pyrazol-4-yl)-3,4-dihydropyrazino[1,2-a]indol-2(1H)-yl)-1-(thiazol-4-ylmethyl)-1H-indole-5-carboxylic acid]
- Ki (Mcl-1): 0.2 nM
- GI50 [1]: 390 nM

Structure (SMILES): Cc1cc(OCCCc2c3n(c4c(-c5c(C)nn(C)c5C)c(Cl)ccc24)[C@H](C)CN(c2cc(COCC4COC4)cc4cc(C(=O)O)n(C)c24)C3=O)cc(C)c1Cl [Example 692, (R)-7-(7-chloro-10-(3-(4-chloro-3,5-dimethylphenoxy)propyl)-4-methyl-1-oxo-6-(1,3,5-trimethyl-1H-pyrazol-4-yl)-3,4-dihydropyrazino[1,2-a]indol-2(1H)-yl)-1-methyl-5-((oxetan-3-ylmethoxy)methyl)-1H-indole-2-carboxylic acid]
- Ki (Mcl-1): < 0.2 nM
- GI50 [1]: 390 nM

Structure (SMILES): COc1ccc(N2C[C@@H](C)n3c(c(CCCOc4cc(C)c(Cl)c(C)c4)c4ccc(Cl)c(-c5c(C)nn(C)c5C)c43)C2=O)c2c1c(C(=O)O)cn2Cc1cc(C)ccn1 [Example 619, (R)-7-(7-chloro-10-(3-(4-chloro-3,5-dimethylphenoxy)propyl)-4-methyl-1-oxo-6-(1,3,5-trimethyl-1H-pyrazol-4-yl)-3,4-dihydropyrazino[1,2-a]indol-2(1H)-yl)-4-methoxy-1-((4-methylpyridin-2-yl)methyl)-1H-indole-3-carboxylic acid]
- Ki (Mcl-1): 0.26 nM
- GI50 [1]: 470 nM

Structure (SMILES): Cc1cc(OCCCc2c3n(c4c(-c5c(C)nn(C)c5C)c(Cl)ccc24)[C@H](C)CN(c2cn(CCN4CCCC4)c4ccc(-c5ncccn5)cc24)C3=O)cc(C)c1Cl [Example 567, (R)-7-Chloro-10-(3-(4-chloro-3,5-dimethylphenoxy)propyl)-4-methyl-2-(5-(pyrimidin-2-yl)-1-(2-(pyrrolidin-1-yl)ethyl)-1H-indol-3-yl)-6-(1,3,5-trimethyl-1H-pyrazol-4-yl)-3,4-dihydropyrazino[1,2-a]indol-1(2H)-one]
- Ki (Mcl-1): 9.6 nM
- GI50 [1]: 930 nM

Structure (SMILES): Cc1cc(OCCCc2c3n(c4c(-c5c(C)cc(OCCN6CCCC6)cc5C)c(Cl)ccc24)[C@H](C)CN(c2cn(C)c4ccc(C(=O)O)cc24)C3=O)cc(C)c1Cl [Example 508, (R)-3-(7-chloro-10-(3-(4-chloro-3,5-dimethylphenoxy)propyl)-6-(2,6-dimethyl-4-(2-(pyrrolidin-1-yl)ethoxy)phenyl)-4-methyl-1-oxo-3,4-dihydropyrazino[1,2-a]indol-2(1H)-yl)-1-methyl-1H-indole-5-carboxylic acid]
- Ki (Mcl-1): 2.4 nM
- GI50 [1]: 450 nM

Structure (SMILES): COCCOc1cc(N2C[C@@H](C)n3c(c(CCCOc4cc(C)c(Cl)c(C)c4)c4ccc(Cl)c(-c5c(C)ncnc5C)c43)C2=O)c2c(c1)cc(C(=O)O)n2Cc1cc(C)ccn1 [Example 573, (R)-7-(7-chloro-10-(3-(4-chloro-3,5-dimethylphenoxy)propyl)-6-(4,6-dimethylpyrimidin-5-yl)-4-methyl-1-oxo-3,4-dihydropyrazino[1,2-a]indol-2(1H)-yl)-5-(2-methoxyethoxy)-1-((4-methylpyridin-2-yl)methyl)-1H-indole-2-carboxylic acid]
- Ki (Mcl-1): < 0.2 nM
- GI50 [1]: < 200 nM

Source: patent publication US11596639B2, “Substituted indole Mcl-1 inhibitors” (Vanderbilt University, priority 2016, dated 2023)
